Legend:
Format in all cases: cell-based
[1] = test system: HUVEC: non-transformed early passage human umbilical vein endothelial cells; experiment: In vitro anti-proliferative activity, BrdU incorporation, HUVEC; conditions: 50% inhibition of proliferation, BrdU incorporation into DNA
Experimental: (§1) Determination of in vitro anti-proliferative activity of substituted estradiol analogs: In vitro anti-proliferative or anti-mitogenic activity was determined using a commercially available cell-based assay in 96-well tissue culture plates with assessment of proliferation by evaluating DNA synthesis through incorporation into DNA of immuno-reactive (BrdU) nucleotides. The cell types used are commercially available (MDA-MB-231: breast cancer; U87-MG: glioblastoma; PC3: prostate cancer; HUVEC: non-transformed early passage human umbilical vein endothelial cells). These assays, and the many assay variations possible to determine in vitro anti-proliferative or anti-mitogenic activity, are well known to those skilled in the art. The concentration which causes 50% inhibition of proliferation (IC50) was estimated from a dose-response curve generally carried out with a range of concentrations from ≧100 microg/mL to ≦0.01 microg/mL.

[2] = test system: MDA-MB-231: breast cancer; experiment: In vitro anti-proliferative activity, BrdU incorporation, MDA-MB-231; conditions: MDA-MB-231 cells, 50% inhibition of proliferation, BrdU incorporation into DNA
Experimental: as §1

PC3: prostate cancer = experiment: In vitro anti-proliferative activity, BrdU incorporation, PC3; conditions: PC3 cells, 50% inhibition of proliferation, BrdU incorporation into DNA
Experimental: as §1

U87-MG: glioblastoma = experiment: In vitro anti-proliferative activity, BrdU incorporation, U87-MG; conditions: U87-MG cells, 50% inhibition of proliferation, BrdU incorporation into DNA
Experimental: as §1

SMILES | IC50 [1] | IC50 [2] | IC50 (PC3: prostate cancer) | IC50 (U87-MG: glioblastoma) | IC50 ([1]; Homo sapiens) | IC50 ([2]; Homo sapiens) | IC50 (PC3: prostate cancer; Homo sapiens, PC-3) | IC50 (U87-MG: glioblastoma; Homo sapiens, U-87 MG)
COc1cc2c(cc1C(=O)O)CC[C@@H]1[C@@H]2CC[C@]2(C)C(=O)CC[C@@H]12 [Compound 28, 2-methoxy-3-(carboxylic acid)estra-1,3,5(10)-triene-17-one] | > 100 µM | > 100 µM | > 100 µM | > 100 µM |  |  |  | 
CC#Cc1cc2c(cc1O)CCC1C2CC[C@@]2(C)C1CC[C@@H]2O (some centres unmarked) [Compound 3] |  |  |  |  | 0.52 ± 0.14 µM | 3.99 ± 1.12 µM | 2.22 ± 0.13 µM | 2.68 ± 0.22 µM
COc1cc2c(cc1O)CC[C@@H]1[C@@H]2CC[C@]2(C)C(=O)CC[C@@H]12 [Compound 4, 2-methoxyestra-1,3,5(10)-trien-3-ol-17-one, reference compound] |  |  |  |  | 12.6 µM | 11.7 µM | 13.7 µM | 10.5 µM
CC=C1CC[C@H]2[C@@H]3CCc4cc(N)c(OC)cc4[C@H]3CC[C@]12C [Compound 109, 3-amino-17-ethylene-2-methoxyestra-1,3,5(10)-triene] | 0.72 ± 0.1 µM | 1.94 ± 0.27 µM | 0.92 ± 0.11 µM | 2.35 ± 0.41 µM |  |  |  | 
COc1cc2c(cc1NC=O)CC[C@@H]1[C@@H]2CC[C@]2(C)C(C)CC[C@@H]12 (some centres unmarked) [Compound 136, 3-formamide-17-methyl-2-methoxyestra-1,3,5(10)-triene] | 0.59 µM | 0.61 µM | 0.7 ± 0.1 µM | 0.64 ± 0.01 µM |  |  |  | 
COc1cc2c(cc1OS(N)(=O)=O)CC[C@@H]1[C@@H]2CC[C@]2(C)C(=O)CC[C@@H]12 [Compound 19, 3-sulfamate-2-methoxyestra-1,3,5(10)-trien-17-one] | 0.18 ± 0.04 µM | 0.6 ± 0.43 µM | 0.51 ± 0.24 µM | 0.8 ± 0.23 µM |  |  |  | 
COc1cc2c(cc1C(N)=O)CC[C@@H]1[C@@H]2CC[C@]2(C)CCC[C@@H]12 [Compound 58, (2-Methoxyestra-1,3,5(10)-trien-3-yl)-3-carboxamide] | 1.42 ± 0.41 µM | 5.23 ± 1.95 µM | 2.58 ± 0.36 µM | 4.52 ± 1.3 µM |  |  |  | 
COc1cc2c(cc1NC=O)CC[C@@H]1[C@@H]2CC[C@]2(C)C(O)CC[C@@H]12 (some centres unmarked) [Compound 43, 3-Formamide-2-methoxyestra-1,3-5(10)-trien-17-ol] | 0.07 ± 0.02 µM | 0.78 ± 0.01 µM | 1.34 ± 0.02 µM | 2.7 ± 0.22 µM |  |  |  | 
C=C1CC[C@H]2[C@@H]3CCc4cc(N)c(OCC)cc4[C@H]3CC[C@]12C [Compound 86, 3-amino-17-methylene-2-ethoxyestra-1,3,5(10)-triene] |  |  |  |  | 2.31 ± 0.05 µM | 2.13 ± 0.12 µM | 2.75 ± 0.22 µM | 7.29 ± 2.26 µM
C=C1CC[C@H]2[C@@H]3CCc4cc(NC=O)c(OC)cc4[C@H]3CC[C@]12C [Compound 88, 3-formamide-17-methylene-2-methoxyestra-1,3,5(10)-triene] | 0.22 ± 0.03 µM | 0.3 ± 0.08 µM | 0.24 ± 0.06 µM | 0.53 ± 0.24 µM |  |  |  | 
COc1cc2c(cc1F)CC[C@@H]1[C@@H]2CC[C@]2(C)C(=O)CC[C@@H]12 [Compound 40, 3-fluoro-2-methoxyestra-1,3,5(10)-trien-17-one] |  |  |  |  | 2.1 ± 0.23 µM | 2.94 ± 0.8 µM | 9.26 ± 0.73 µM | 26 ± 3.38 µM
CC=C1CCC2C3CCc4cc(O)c(OC)cc4C3CCC12C (centres unmarked) [Compound 13, 2-Methoxy-19-norpregna-1,3,5(10)17(20)-tetraene-3-ol] | 0.37 ± 0.08 µM | 2.63 ± 0.2 µM | 1.15 ± 0.4 µM | 2.37 ± 0.34 µM |  |  |  | 
C=C1CC[C@H]2[C@@H]3CCc4cc(NC=O)c(OCC)cc4[C@H]3CC[C@]12C [Compound 89, 3-formamide-17-methylene-2-ethoxyestra-1,3,5(10)-triene] | 2.1 ± 0.02 µM | 2.41 ± 0.13 µM | 1.59 ± 0.19 µM | 7.73 µM |  |  |  | 
C=Cc1cc2c(cc1OC)[C@H]1CC[C@]3(C)C(=O)CC[C@H]3[C@@H]1CC2 [Compound 25, 2-methoxy-3-(vinyl)estra-1,3,5(10)-triene-17-one] |  |  |  |  | 0.58 ± 0.01 µM | 2.57 ± 0.29 µM | 1.43 ± 0.4 µM | 2.2 ± 0.06 µM
CCOc1cc2c(cc1O)CC[C@@H]1[C@@H]2CC[C@]2(C)C(O)CC[C@@H]12 (some centres unmarked) [Compound 2, 2-Ethoxyestra-1,3,5(10)-trien-3,17-diol] |  |  |  |  | 0.14 ± 0.07 µM | 0.65 ± 0.23 µM |  | 
COc1cc2c(cc1N)CC[C@@H]1[C@@H]2CC[C@]2(C)CCC[C@@H]12 [Compound 61, 3-amino-2-methoxyestra-1,3,5(10)-triene] |  |  |  |  | 6.43 ± 1.32 µM | 7.62 ± 0.43 µM | 8.63 ± 0.18 µM | 10.2 ± 3.78 µM
C=C1CC[C@H]2[C@@H]3CCc4cc(O)c(OC)cc4[C@H]3CC[C@]12C [Compound 10, 2-methoxy-17(20)-methyleneestra-1,3,5(10)-triene-3-ol] | 0.26 ± 0.23 µM | 0.58 ± 0.31 µM |  |  |  |  |  | 

SMILES | IC50 [1] | IC50 [2] | IC50 (PC3: prostate cancer) | IC50 (U87-MG: glioblastoma) | IC50 ([1]; Homo sapiens) | IC50 ([2]; Homo sapiens) | IC50 (PC3: prostate cancer; Homo sapiens, PC-3) | IC50 (U87-MG: glioblastoma; Homo sapiens, U-87 MG)
C=C1CC[C@H]2[C@@H]3CCc4cc(OS(=O)(=O)C(F)(F)F)c(OC)cc4[C@H]3CC[C@]12C [Compound 73, 3-triflic-17-methylene-2-methoxyestra-1,3,5(10)-triene] | > 100 µM | > 100 µM | > 100 µM | > 100 µM |  |  |  | 
C=C1CC[C@H]2[C@@H]3CCc4cc(C(N)=O)c(OC)cc4[C@H]3CC[C@]12C [Compound 82, 2-Methoxy-17-methyleneestra-1,3,5(10)-triene-3-carboxamide] |  |  |  |  | 0.12 ± 0.06 µM | 0.19 ± 0.08 µM | 0.25 ± 0.01 µM | 0.25 ± 0.02 µM
CC=C1CC[C@H]2[C@@H]3CCc4cc(NC=O)c(OC)cc4[C@H]3CC[C@]12C [Compound 112, 3-formamide-17-ethylene-2-methoxyestra-1,3,5(10)-triene] | 0.58 µM | 0.56 ± 0.02 µM | 0.74 ± 0.01 µM | 0.77 ± 0.06 µM |  |  |  | 
CC=C1CC[C@H]2[C@@H]3CCc4cc(OS(N)(=O)=O)c(OC)cc4[C@H]3CC[C@]12C [Compound 94, 3-sulfamate-17-ethylene-2-methoxyestra-1,3,5(10)-triene] | 0.59 µM | 0.58 ± 0.02 µM | 0.66 ± 0.05 µM | 0.64 ± 0.09 µM |  |  |  | 
COc1cc2c(cc1OS(N)(=O)=O)CC[C@@H]1[C@@H]2CC[C@]2(C)CCC[C@@H]12 [Compound 46, 3-sulfamate-2-methoxyestra-1,3,5(10)-triene] | 0.21 ± 0.15 µM | 0.38 ± 0.15 µM | 0.38 ± 0.21 µM | 0.72 ± 0.04 µM |  |  |  | 
COc1cc2c(cc1OS(N)(=O)=O)CC[C@@H]1[C@@H]2CC[C@]2(C)C(C)CC[C@@H]12 (some centres unmarked) [Compound 118, 3-sulfamate-17-methyl-2-methoxyestra-1,3,5(10)-triene] | 0.59 ± 0.1 µM | 0.66 ± 0.1 µM | 0.82 ± 0.06 µM | 0.64 ± 0.01 µM |  |  |  | 
CCOc1cc2c(cc1OS(N)(=O)=O)CC[C@@H]1[C@@H]2CC[C@]2(C)C(=O)CC[C@@H]12 [Compound 20, 3-sulfamate-2-ethoxyestra-1,3,5(10)-trien-17-one] | 2.59 ± 0.25 µM | 7.52 ± 2.04 µM | 8.93 ± 0.61 µM | 19.8 ± 2.32 µM |  |  |  | 
COc1cc2c(cc1NC=O)CC[C@@H]1[C@@H]2CC[C@]2(C)CCC[C@@H]12 [Compound 64, 3-formamide-2-methoxyestra-1,3,5(10)-triene] | 5.8 ± 0.73 µM | 8.29 ± 1.64 µM | 9.24 ± 0.59 µM | 23.2 ± 2 µM |  |  |  | 
C=Cc1cc2c(cc1OC)[C@H]1CC[C@]3(C)CCC[C@H]3[C@@H]1CC2 [Compound 52, 3-Vinyl-2-methoxyestra-1,3,5(10)-triene] |  |  |  |  | 0.58 ± 0.04 µM | 1.86 ± 0.22 µM | 2.12 ± 0.64 µM | 3.14 ± 0.52 µM
CCOc1cc2c(cc1N)CC[C@@H]1[C@@H]2CC[C@]2(C)C(=O)CC[C@@H]12 [Compound 35, 3-Amino-2-ethoxyestra-1,3,5(10)-trien-17-one] |  |  |  |  | 16.5 ± 2.02 µM | 10.6 ± 2.98 µM | 9.25 ± 1.58 µM | 26.1 ± 1.4 µM
COc1cc2c(cc1N)CC[C@@H]1[C@@H]2CC[C@]2(C)C(=O)CC[C@@H]12 [Compound 34, 3-amino-2-methoxyestra-1,3,5(10)-trien-17-one] |  |  |  |  | 23.4 ± 4.14 µM | 46.9 ± 8.15 µM | > 100 µM | 81.5 ± 20.4 µM
C=C1CC[C@H]2[C@@H]3CCc4cc(N)c(OC)cc4[C@H]3CC[C@]12C [Compound 85, 3-amino-17-methylene-2-methoxyestra-1,3,5(10)-triene] |  |  |  |  | 1 ± 0.19 µM | 2.11 ± 0.57 µM | 2.4 ± 0.39 µM | 5.51 ± 0.46 µM
COc1cc2c(cc1O)CC[C@@H]1[C@@H]2CC[C@]2(C)CCC[C@@H]12 [Compound 7, 2-methoxyestra-1,3,5(10)-triene-3-ol] |  |  |  |  | 1.32 ± 0.56 µM | 2.2 ± 0.52 µM | 8.49 ± 2.49 µM | 7.35 ± 0.43 µM
C=Cc1cc2c(cc1OC)[C@H]1CC[C@]3(C)[C@@H](O)CC[C@H]3[C@@H]1CC2 [Compound 25a, 2-methoxy-3-(vinyl)estra-1,3,5(10)-triene-17β-ol] |  |  |  |  | 1.96 ± 0.05 µM | 8.93 ± 0.61 µM | 6.34 ± 0.08 µM | 7.81 ± 1.3 µM
COc1cc2c(cc1O)CC[C@@H]1[C@@H]2CC[C@]2(C)[C@@H](C)CC[C@@H]12 [Compound 16, 2-methoxy-17β-methylestra-1,3,5(10)-triene-3-ol] |  |  |  |  | 2.4 ± 0.45 µM | 3.33 ± 0.23 µM | 6.46 ± 2.31 µM | 9.39 ± 0.43 µM
COc1cc2c(cc1C(N)=O)CC[C@@H]1[C@@H]2CC[C@]2(C)C(=O)CC[C@@H]12 [Compound 31, 2-methoxy-3-carboxamideestra-1,3,5(10)-triene-17-one] | 0.79 ± 0.2 µM | 0.7 ± 0.12 µM | 0.7 ± 0.03 µM | 1.07 ± 0.15 µM |  |  |  | 
